Measured values reported in patent publication US20130123261A1, “ISOXAZOLINE COMPOUNDS IN TYPE 2 DIABETES AND OTHER MALADIES” (CPSI STOCKHOLDER TRUST, priority 2009, published 2013).

Tested on: STZ-induced NIDDM in outbred ICR mice
Test: Effect of orally administered MIF antagonist on STZ-induced NIDDM in ICR mice
Assay type: in vivo
Conditions: for blood glucose levels: STZ 90 mg/Kg i.p., oral, daily single dose for 30 days; for blood glucose levels / serum levels of inflammatory cytokines / pro-inflammatory cytokine production: dose not stated
Description: ICR, MIF−/− BALB/c and BALB/c mice were fasted 20 hr before induction of diabetes with a single i.p. injection of STZ 90 mg/Kg (for ICR mice) or 130 mg/kg (for BALB/c mice) (Sigma, St. Louis, Mo., U.S.A.) freshly dissolved in 0.05 M citrate buffer, pH 4.5 following the protocol previously reported (13;14). Normal mice of each strain were injected with equivalent volume of citrate buffer as negative controls.
Blood samples from WT and MIF−/− mice were collected at 0, 1, 2, 4, 6, 8, and 10 weeks after STZ injection by tail snipping. Serum glucose levels were determined using Accu-Chek® glucometer. Body weights were measured immediately before blood collection. The animals were kept in individual metabolic cages for 24 hrs and provided with drinking water (100 ml) and food (75 g). The water and food consumption as well as urine output over a 24 hr period was determined. This process was repeated every week until 10 weeks after STZ induction.
Following administration of STZ, blood was collected at 1-week intervals by tail snips. Levels of TNF-α, IL-1β, IL-6, IL-4, IL-10, resistin (all from Peprotech, Mexico), and insulin (Lincon, St. Charles, Mo.) in sera were determined by ELISA as per the manufacturer's instructions.
Age and sex-matched ICR mice were fasted for 20 hrs and then injected i.p. with STZ (90 mg/Kg). Six-hours later following STZ injection mice were administered CSP1306 or PBS daily in a single dose orally for 30 days. Blood was collected by tail snipping once every week to measure glucose levels using Accu-Chek® glucometer and to determine cytokine levels by ELISA as described above. CPSI 1306 has the following formula: […]
NIDDM was induced in ICR mice by a single intraperitoneal injection of STZ (90 mg/kg). On day 5 post-STZ injection and thereafter mice were orally administered CPSI-1306 (1 mg/kg or 0.1 mg/Kg) daily for 30 days. Mice were bled once a week by tail sniping and levels of glucose (A) and inflammatory cytokines IL-6 (B) and TNF-α (C) in the blood were determined. The data are from one representative experiment out of three. * p<0.05.

[1] = ICR mice with STZ injection, 0.1 and 0.01 mg/kg
[2] = ICR mice, STZ-induced NIDDM, oral administration, ELISA

O=C(C[C@H]1CC(c2ccc(F)cc2F)=NO1)N1CCOCC1 [CPSI-1306]
blood glucose [1]: significant reduction
polyuria [1]: less polyuria
serum levels of inflammatory cytokines [1]: significant reduction
severity of NIDDM [1]: reduced severity of NIDDM
blood glucose levels after stoppage of treatment (ICR mice with STZ injection, after stoppage of treatment, data not shown): spike in blood glucose levels
blood glucose levels (ICR mice, listed as CSP156): significant drop
blood glucose levels (ICR mice, listed as CSP1306): significantly lowered blood glucose levels in majority of animals
blood glucose levels (ICR mice, listed as CSPI-1306): highly effective
level of pro-inflammatory cytokine IL-6 in the sera [2]: significant reduction
level of pro-inflammatory cytokine TNF-α in the sera [2]: significant reduction
serum levels of inflammatory cytokines / pro-inflammatory cytokine production (ICR mice, STZ-induced NIDDM, oral administration, listed as CSP156): reduction in serum levels of inflammatory cytokines
serum levels of inflammatory cytokines / pro-inflammatory cytokine production (ICR mice, STZ-induced NIDDM, oral administration, listed as CSPI-1306): highly effective in suppressing pro-inflammatory cytokine production
severity and progression of STZ-induced NIDDM (FIG. 6) (outbred ICR mice, STZ 90 mg/kg i.p., oral 1 mg/kg or 0.1 mg/Kg daily for 30 days from day 5 post-STZ): Significantly Reduces Severity and Progression
